The target in the assay is T1, Aurora A (Homo sapiens, UniProt O14965).
T1 construct: gene AURKA
T1 sequence (O14965 1-403): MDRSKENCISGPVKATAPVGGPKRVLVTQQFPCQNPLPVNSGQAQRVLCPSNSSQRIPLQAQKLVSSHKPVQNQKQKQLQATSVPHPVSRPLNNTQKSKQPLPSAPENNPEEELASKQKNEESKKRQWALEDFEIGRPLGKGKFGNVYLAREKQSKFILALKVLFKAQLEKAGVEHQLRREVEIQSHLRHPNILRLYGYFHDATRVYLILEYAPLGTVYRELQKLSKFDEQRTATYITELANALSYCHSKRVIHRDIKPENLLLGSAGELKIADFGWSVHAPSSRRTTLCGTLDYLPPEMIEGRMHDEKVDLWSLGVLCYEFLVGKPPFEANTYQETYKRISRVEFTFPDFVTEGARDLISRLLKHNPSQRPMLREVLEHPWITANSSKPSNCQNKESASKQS
Briefly: radiometric […]-ATP kinase assay with purified kinase (Dundee panel; dose-response). Type of assay: biochemical.

For the compound `CC(=O)OC(C)(C)/C=C/C(=O)[C@](C)(O)[C@H]1[C@H](O)C[C@@]2(C)[C@@H]3CC=C4[C@@H](C[C@H](O)C(=O)C4(C)C)[C@]3(C)C(=O)C[C@]12C` [CuB, Cucurbitacin B], the IC50 stood at 100 nM.
